Laboratory results: patent US20130225641A1, “ANTICANCER COMPOUNDS AND PREPARATION METHODS THEREOF” (priority 2010, published 2013)
pIC50: −log10 of the molar value.

Assays:
[1] = MTT cytotoxicity, MEF normal mouse fibroblast; type: cell-based; conditions: MEF normal mouse fibroblasts; MEF, Normal mouse fibroblast; 72 hrs, MTT; read-out: LC50
Protocol: [Worded in the source for another organism; this organism is reported under the same test.] (§1) The cytotoxicity of ZTP and ZTQ was analyzed by using human tumor cell lines. Human tumor cell lines were purchased from ATCC and NCI, and cultured in DMEM medium containing 10% FBS at 37° C. in 5% CO2 in an incubator. The cells grown to confluence were used for cytotoxicity analysis. The cells were digested with trypsin, washed with the culture medium, and then counted. 33 tumor cell lines were cultured. The cells were seeded at a density of 3000-6000 cells/well in a 96-well plate and incubated for 16-24 hrs. Then, various concentrations of ZTP or ZTQ dissolved in DMSO were added, and cultured for 72 hrs. The drug-treated cells and control cells were analyzed by MTT.

MEF = experiment: MTT cytotoxicity, MEF normal mouse fibroblast; type: cell-based; conditions: cells still grow well at a concentration up to 30 μm
Protocol: [Worded in the source for another organism; this organism is reported under the same test.] as §1

EC109 = experiment: MTT cytotoxicity, EC109; type: cell-based; conditions: Homo sapiens, ECa-109, EC109, Esophageal, 72 hrs, read-out: LC50 (the source's name)
Protocol: as §1

[2] = MTT cytotoxicity, HUMEC human microvascular endothelial cell; type: cell-based; conditions: HUMEC human microvascular endothelial cells, read-out: LC50
Protocol: [Worded in the source for another cell line; this cell line is reported under the same test.] as §1

HepG3B = experiment: MTT cytotoxicity, HepG3B; type: cell-based; conditions: Homo sapiens, Liver, 72 hrs, read-out: LC50 (the source's name)
Protocol: as §1

BT-549 = experiment: MTT cytotoxicity, BT-549; type: cell-based; conditions: Homo sapiens, BT-549, Breast, 72 hrs, read-out: LC50 (the source's name)
Protocol: as §1

[3] = test system: human liver cancer cells (HepG3B); experiment: Transplantation model of human liver cancer (HepG3B) in nude mice; type: in vivo, nude mice (nu/nu); conditions: HepG3B subcutaneous in nude mice; oral daily 5 days/week, 3 weeks; ZTP 30 mg/kg, ZTQ 60 mg/kg; lower = stronger
Protocol: T-cell deficient nude mice (nu/nu) of 6 weeks old were purchased from Charles River Laboratory, and housed and treated in a sterile environment following Institutional Animal Care & Use Committee Program. 48 mice were respectively subcutaneously inoculated on ribbed belly with 5×10^6 human liver cancer cells (HepG3B), human lung caner cells (NCI-H23), and human colon cancer cells (HCT-116) suspended in 0.2 ml HBSS/matrigel (50:50, V/V). When the tumor grew to have an average diameter of 7-8 mm and a volume of about 100-200 mm^3, 24 mice were picked up, and assigned to treatment groups (16 animals/2 groups), and a control group (8 animals). The 2 treatment groups were administered with the compounds ZTP and ZTQ dissolved in 15% Captsol respectively at a dose of 30 mg/kg and 60 mg/kg, and the control group only received an excipient (15% Captsol).
The same number of mice of each type was assigned to the control group and the treatment groups with the compounds ZTP and ZTQ respectively.
The dose schedule of the test compounds in the tumor transplanted nude mice was as follows: the compounds ZTP and ZTQ dissolved in 15% Captsol were daily orally administered as a 200 μl solution containing 0.75 mg of ZTP and 1.5 mg of ZTQ for 5 days/week over 3 consecutive weeks, followed by one-week break; and the control group was only administered with 200 μl of the placebo (15% Captsol) for 3 weeks, followed by 1 week of break. The two groups of animals were housed separately, and allowed to free access to food.
Evaluation of antitumor effect: the tumor size was measured every 3 or 4 days. The tumor volume was calculated using the equation below: […], in which a denotes the width (the shorter diameter), and b denotes the length (the longer diameter). Relative tumor volume (RTV) of each tumor refers to the ratio of the volume at a specified time to that at the beginning of the treatment. The average RTV for each treatment group was calculated. The antitumor activity was determined by calculating the tumor growth inhibition using a formula below. […]

Raf protein kinase = experiment: Inhibition of Raf protein kinase activity (phosphorylated MEK, western blotting) in MDA-MB-321 cells; type: cell-based, human; conditions: 1 hour treatment, phosphorylated MEK level, read-out: median inhibitory concentration (IC50) for inhibiting the activity of Raf protein kinase
Text: Raf is a proto-oncogenic product, and activation of Raf is regulated with stimulation from extracellular cell growth factors. Once activated, Raf can activate MEK through phosphorylation, and further transmits an activation signal to ERK, thereby promoting the growth of tumor cells. In this test, the level of phosphorylated MEK in cells is indicative of the activity of Raf protein kinase in cells. MDA-MB-321 is a human derived breast cancer cell line, which is rich in Raf protein. We used MDA-MB-321 cells to detect whether ZTP and ZTQ can inhibit the activity of Raf protein kinase. MDA-MB-321 cells were subjected to adherent growth in the RPMI 1640 medium (GIBCO-BRL) containing 10% bovine calf serum at 37° C. in 5% CO2. The cells were treated with various concentrations of ZTP and ZTQ (0, 10 ng/ml, 100 ng/ml, 500 ng/ml, 1 μg/ml, and 10 μg/ml), and the cell proteins were collected 1 hour after treatment. The protein content was determined through Bradford method, and then the level of phosphorylated MEK was assayed through western blotting. Immunoblotting experiment: denatured polyacrylamide gel was used for separation of the proteins with a sample load of 60 μg of total proteins. The proteins were electro-transferred onto a PVDF membrane and blocked. […] The membrane was exposed to an X-ray film, and the results were analyzed by a gel imaging system. […]

HCT-116 = experiment: MTT cytotoxicity, HCT-116; type: cell-based; conditions: Homo sapiens, HCT-116, Colonic, 72 hrs, read-out: LC50 (the source's name)
Protocol: as §1

SKOV3 = experiment: MTT cytotoxicity, SKOV3; type: cell-based; conditions: Homo sapiens, SK-OV-3, SKOV3, Ovarian, 72 hrs, read-out: LC50 (the source's name)
Protocol: as §1

CCL-225 = experiment: MTT cytotoxicity, CCL-225; type: cell-based; conditions: Homo sapiens, CCL-225, Colonic, 72 hrs, read-out: LC50 (the source's name)
Protocol: as §1

Mid PaCa-2 = experiment: MTT cytotoxicity, Mid PaCa-2; type: cell-based; conditions: Homo sapiens, Mid PaCa-2, Pancreatic, 72 hrs, read-out: LC50 (the source's name)
Protocol: as §1

CNC(=O)c1cc(Oc2ccc(NC(=S)Nc3ccc(Cl)c(C(F)(F)F)c3)cc2)ccn1 [ZTP, N-[4-chloro-3-(trifluoromethyl)phenyl]-[4-(N-methyl-formamide)(4-pyridyloxy)phenyl]-thiourea]
CC50 at 72 h [1]: > 30000 nM
susceptibility of normal mouse fibroblasts (MEFs) (MEF): insusceptible
CC50 (EC109): 1480 nM
CC50 at 72 h [2]: 31 nM
CC50 (HepG3B): 1710 nM
CC50 (BT-549): 1090 nM
TGI (T/C×100) [3]: 13%
pIC50 (Raf protein kinase): 7.35
CC50 (HCT-116): 870 nM
CC50 (SKOV3): 1190 nM
CC50 (CCL-225): 1980 nM
CC50 (Mid PaCa-2): 1250 nM

CNC(=O)c1cc(Sc2ccc(NC(=S)Nc3ccc(Cl)c(C(F)(F)F)c3)cc2)ccn1 [ZTQ, N-[4-chloro-3-(trifluoromethyl)phenyl]-[4-(N-methyl-formamide)(4-pyridylthio)phenyl]-thiourea]
CC50 at 72 h [1]: > 30000 nM
susceptibility of normal mouse fibroblasts (MEFs) (MEF): insusceptible
CC50 (EC109): 1120 nM
CC50 at 72 h [2]: 19 nM
CC50 (HepG3B): 1230 nM
CC50 (BT-549): 890 nM
TGI (T/C×100) [3]: 1.75%
pIC50 (Raf protein kinase): 7.70
CC50 (HCT-116): 760 nM
CC50 (SKOV3): 980 nM
CC50 (CCL-225): 1430 nM
CC50 (Mid PaCa-2): 910 nM
